For this experiment, the system named is P388 leukemia ip, CD2F1 mice, survival T/C. The experiment is described as follows: NCI In Vivo Anticancer Drug Screen. Data for tumor model P388 Leukemia (intraperitoneal) in CD2F1 (CDF1) mice. The settings on record: endpoint: median survival time, higher = longer survival. The method, boiled down:
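Mice carrying the transplanted tumor received test compound or vehicle. Survival was recorded in each group, and the value is the treated-group measurement divided by that of the vehicle-treated control group.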

[1] abbreviates: dose: 100.0 mg/kg/injection, schedule: Q04DX003 (ip), vehicle: saline with Tween-80.
Where [2] appears, read: dose: 50.0 mg/kg/injection, schedule: Q01DX009 (ip), vehicle: saline with Tween-80.
The mark [3] stands for this setting: dose: 200.0 mg/kg/injection, schedule: Q01DX009 (ip), vehicle: saline with Tween-80.
[4] abbreviates: dose: 50.0 mg/kg/injection, schedule: Q01DX009 (ip), vehicle: saline.
Setting [5] is: dose: 100.0 mg/kg/injection, schedule: Q01DX009 (ip), vehicle: saline.
Where [6] appears, read: dose: 200.0 mg/kg/injection, schedule: Q01DX009 (ip), vehicle: saline.
Where [7] appears, read: dose: 50.0 mg/kg/injection, schedule: Q01DX005 (ip), vehicle: saline with Tween-80.
Setting [8] is: dose: 100.0 mg/kg/injection, schedule: Q01DX005 (ip), vehicle: saline with Tween-80.
The mark [9] stands for this setting: dose: 200.0 mg/kg/injection, schedule: Q01DX005 (ip), vehicle: saline with Tween-80.
Where [10] appears, read: dose: 50.0 mg/kg/injection, schedule: Q01DX001 (ip), vehicle: saline with Tween-80.
The mark [11] stands for this setting: dose: 100.0 mg/kg/injection, schedule: Q01DX001 (ip), vehicle: saline with Tween-80.

“And” between values parts separate entries of the source, which are not always exact repeats. Equal values may be shown once. Inconclusive results and toxic doses are left out. Peptide text beside a SMILES is read from it.

As to `Clc1cnc2n[se]nc2c1`, the T/C (dose: 25.0 mg/kg/injection, schedule: Q04DX002 (ip), vehicle: saline) is 106 % of control; the T/C (dose: 50.0 mg/kg/injection, schedule: Q04DX002 (ip), vehicle: saline) is 116 % of control; the T/C (dose: 100.0 mg/kg/injection, schedule: Q04DX002 (ip), vehicle: saline) is 105 % of control and 114 % of control.
Turning to `CCOC(=O)C[N+](C)(C)C(C#N)C(C)c1ccccc1` (stereo not given), the T/C (dose: 60.0 mg/kg/injection, schedule: Q01DX005 (ip), vehicle: saline) is 95 % of control and the T/C (dose: 120.0 mg/kg/injection, schedule: Q01DX005 (ip), vehicle: saline) is 95 % of control.
As to `CCCCCCCCCC[N+](C)([O-])CCCCCC[N+](C)([O-])CCCCCCCCCC` (stereo not given), the T/C runs as follows: (dose: 50.0 mg/kg/injection, schedule: Q04DX003 (ip), vehicle: saline with Tween-80) 102 % of control; under setting [1], 99 % of control.
For the molecule `CC1OC(n2ccc(NC(=O)c3ccc(NC(=O)C(C)(N)CO)cc3)nc2=O)CCC1OC1OC(C)C(N(C)C)C(O)C1O` (stereo not given), the T/C under setting [1] is 100 % of control; the T/C (dose: 200.0 mg/kg/injection, schedule: Q04DX003 (ip), vehicle: saline with Tween-80) was 100 % of control; the T/C (dose: 400.0 mg/kg/injection, schedule: Q04DX003 (ip), vehicle: saline with Tween-80) is 109 % of control.
For `C=C1C(=O)OC2(C)CCC1CC1OC1(C)CC/C=C(\C)CCC2OC(C)=O` (stereo not given), the T/C by setting is: (dose: 37.5 mg/kg/injection, schedule: Q01DX001 (ip), vehicle: Klucel (hydroxypropylcellulose) (HPC)) 94 % of control; (dose: 75.0 mg/kg/injection, schedule: Q01DX001 (ip), vehicle: Klucel (hydroxypropylcellulose) (HPC)) 92 % of control; (dose: 150.0 mg/kg/injection, schedule: Q01DX001 (ip), vehicle: Klucel (hydroxypropylcellulose) (HPC)) 91 % of control; (dose: 300.0 mg/kg/injection, schedule: Q01DX001 (ip), vehicle: Klucel (hydroxypropylcellulose) (HPC)) 88 % of control.
With `COC(=O)C1=C(C(=O)OC)CC1`, the T/C is, setting by setting: under setting [2], 109 % of control; (dose: 100.0 mg/kg/injection, schedule: Q01DX009 (ip), vehicle: saline with Tween-80) 109 % of control; under setting [3], 117 % of control.
For the molecule `Cc1ccc(S(=O)(=O)/N=C2\C=CC=C\C2=C2\Sc3ccccc3N2C)cc1`, the T/C reads like this: (dose: 100.0 mg/kg/injection, schedule: Q04DX003 (ip), vehicle: saline) 102 % of control; (dose: 200.0 mg/kg/injection, schedule: Q04DX003 (ip), vehicle: saline) 99 % of control; (dose: 400.0 mg/kg/injection, schedule: Q04DX003 (ip), vehicle: saline) 95 % of control.
As to `Cc1ccc(S(=O)(=O)OCC2(COCc3ccccc3)CCCCC2=O)cc1` (stereo not given), the T/C reads like this: (dose: 50.0 mg/kg/injection, schedule: Q01DX009 (ip), vehicle: Klucel (hydroxypropylcellulose) (HPC)) 106 % of control; (dose: 100.0 mg/kg/injection, schedule: Q01DX009 (ip), vehicle: Klucel (hydroxypropylcellulose) (HPC)) 92 % of control; (dose: 200.0 mg/kg/injection, schedule: Q01DX009 (ip), vehicle: Klucel (hydroxypropylcellulose) (HPC)) 95 % of control.
As to `Cc1ccc(NC(=O)c2cc3ccccc3cc2O)c(C)c1.Cc1ccc(NC(=O)c2cc3ccccc3cc2O)c(C)c1.[Fe+2]`, the T/C runs as follows: under setting [4], 92 % of control; under setting [5], 104 % of control; under setting [6], 90 % of control.
Turning to `Cc1ccc(S(=O)c2ccccc2C(O)(C(F)(F)F)C(F)(F)F)cc1` (stereo not given), the T/C is 99 % of control (dose: 50.0 mg/kg/injection, schedule: Q01DX005 (ip), vehicle: Klucel (hydroxypropylcellulose) (HPC)); 99 % of control (dose: 100.0 mg/kg/injection, schedule: Q01DX005 (ip), vehicle: Klucel (hydroxypropylcellulose) (HPC)); 92 % of control (dose: 200.0 mg/kg/injection, schedule: Q01DX005 (ip), vehicle: Klucel (hydroxypropylcellulose) (HPC)).
With `O=S1(=O)NC(=NC2CCCC2)c2ccccc21`, the T/C runs as follows: under setting [7], 111 % of control; under setting [8], 102 % of control; under setting [9], 101 % of control.
Regarding `O=C(O)CC(=O)c1ccccc1`, the T/C is, setting by setting: (dose: 25.0 mg/kg/injection, schedule: Q01DX009 (ip), vehicle: saline with Tween-80) 102 % of control; under setting [2], 105 % of control; under setting [3], 89 % of control.
For the molecule `COC(=O)C(Cc1ccccc1)NC(=O)C(CC(C)C)NC(=O)C(CC(C)C)NC(=O)C(N)CC(C)C` (stereo not given) (H-LLLF-OMe; configuration not given here), the T/C by setting is: under setting [7], 98 % of control; under setting [8], 104 % of control.
Turning to `Cc1ccc2ncc([N+](=O)[O-])n2c1`, the T/C is 94 % of control under setting [10]; 97 % of control under setting [11]; 90 % of control (dose: 200.0 mg/kg/injection, schedule: Q01DX001 (ip), vehicle: saline with Tween-80); 94 % of control (dose: 400.0 mg/kg/injection, schedule: Q01DX001 (ip), vehicle: saline with Tween-80).
Consider `S=c1n(-c2ccc(Cl)cc2)c2nc3ccccc3nc(/c2=N\Nc2cc(Cl)ccc2Cl)n1-c1ccc(Br)cc1`, for which the T/C by setting is: under setting [7], 100 % of control; under setting [8], 105 % of control; under setting [9], 97 % of control.
Turning to `Cc1ccc(NCCCC2CCCN3CCCCC23)c2c(=O)c3cc(O)ccc3sc12` (stereo not given), the T/C was 99 % of control (dose: 25.0 mg/kg/injection, schedule: Q01DX001 (ip), vehicle: saline with Tween-80); 98 % of control under setting [10]; 100 % of control under setting [11].
Regarding `COCCCN1C(=O)/C(=C/c2ccccn2)SC1=S`, the T/C under setting [4] is 97 % of control, the T/C under setting [5] is 96 % of control and the T/C under setting [6] was 96 % of control.

The record behind these values is PubChem BioAssay AID330 (DTP/NCI, 2004).
